The source of these data is patent US11377469B2, “CD73 inhibitors” (ORIC Pharmaceuticals, Inc., priority 2017, dated 2022).

The structures appear in SMILES notation.

For this assay, the target named is CD73 (Homo sapiens (Human), UniProt P21589). Put plainly: Biochemical Assay (CD73 inhibition, AMP hydrolysis, Malachite Green readout). The note with it: CD73 0.3208 nM, AMP 15 μM, Tris-HCl pH 7.4, Malachite Green absorbance.
Chain of CD73 (P21589 27-574): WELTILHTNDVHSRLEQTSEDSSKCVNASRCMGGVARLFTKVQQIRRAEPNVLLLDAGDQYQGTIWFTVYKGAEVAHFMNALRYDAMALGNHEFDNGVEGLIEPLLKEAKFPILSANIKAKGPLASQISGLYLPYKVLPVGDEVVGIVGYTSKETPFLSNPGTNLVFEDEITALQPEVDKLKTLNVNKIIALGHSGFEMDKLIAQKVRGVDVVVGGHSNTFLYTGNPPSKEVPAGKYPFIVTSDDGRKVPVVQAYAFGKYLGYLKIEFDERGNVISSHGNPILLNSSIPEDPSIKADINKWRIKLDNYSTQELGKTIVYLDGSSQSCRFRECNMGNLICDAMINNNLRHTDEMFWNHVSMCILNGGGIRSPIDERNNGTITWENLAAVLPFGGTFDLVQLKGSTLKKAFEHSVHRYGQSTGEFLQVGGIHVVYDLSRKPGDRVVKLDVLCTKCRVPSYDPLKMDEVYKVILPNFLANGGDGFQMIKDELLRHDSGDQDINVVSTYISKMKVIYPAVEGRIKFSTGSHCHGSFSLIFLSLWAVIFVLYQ
Take `O=P(O)(O)COC[C@H]1O[C@@H](n2nnc3c(NCC4CC4)nc(Cl)nc32)[C@H](O)[C@@H]1O` [Example 16, ((((2R,3S,4R,5R)-5-(5-Chloro-7-((cyclopropylmethyl)amino)-3H-[1,2,3]triazolo[4,5-d]pyrimidin-3-yl)-3,4-dihydroxytetrahydrofuran-2-yl)methoxy)methyl)phosphonic acid]: the half-inhibitory concentration (IC50) is at most 500 nM.

Consider `CN(c1nc(Cl)nc2c1cnn2[C@@H]1O[C@H](COCP(=O)(O)O)[C@@H](O)[C@H]1O)[C@H]1CCc2ccccc21` [Example 31, ((((2R,3S,4R,5R)-5-(6-chloro-4-(((S)-2,3-dihydro-1H-inden-1-yl)(methyl)amino)-1H-pyrazolo[3,4-d]pyrimidin-1-yl)-3,4-dihydroxytetrahydrofuran-2-yl)methoxy)methyl)phosphonic acid], for which the IC50 was at most 500 nM.

In the case of `C[C@]1(O)C[C@@H](CNc2nc(Cl)nc3c2cnn3[C@@H]2O[C@H](COCP(=O)(O)O)[C@@H](O)[C@H]2O)C1` [Example 89, ((((2R,3S,4R,5R)-5-(6-chloro-4-((((1s,3S)-3-hydroxy-3-methylcyclobutyl)methyl)amino)-1H-pyrazolo[3,4-d]pyrimidin-1-yl)-3,4-dihydroxytetrahydrofuran-2-yl)methoxy)methyl)phosphonic acid], the IC50 was at most 500 nM.

Turning to `CCC(CC)Nc1nc(Cl)nc2c1cnn2[C@@H]1O[C@H](COCP(=O)(O)O)[C@@H](O)[C@H]1O` [Example 78, ((((2R,3S,4R,5R)-5-(6-chloro-4-(pentan-3-ylamino)-1H-pyrazolo[3,4-d]pyrimidin-1-yl)-3,4-dihydroxytetrahydrofuran-2-yl)methoxy)methyl)phosphonic acid], the IC50 is at most 500 nM.

Consider `CC1(C)CCC[C@@H]1Nc1nc(Cl)nc2c1cnn2[C@@H]1O[C@H](COCP(=O)(O)O)[C@@H](O)[C@H]1O` [Example 102, ((((2R,3S,4R,5R)-5-(6-chloro-4-(((S)-2,2-dimethylcyclopentyl)amino)-1H-pyrazolo[3,4-d]pyrimidin-1-yl)-3,4-dihydroxytetrahydrofuran-2-yl)methoxy)methyl)phosphonic acid], for which the IC50 was at most 500 nM.

For the compound `O=P(O)(O)COC[C@H]1O[C@@H](n2ncc3c(NC[C@H]4CCCO4)nc(Cl)nc32)[C@H](O)[C@@H]1O` [Example 70, ((((2R,3S,4R,5R)-5-(6-chloro-4-((((R)-tetrahydrofuran-2-yl)methyl)amino)-1H-pyrazolo[3,4-d]pyrimidin-1-yl)-3,4-dihydroxytetrahydrofuran-2-yl)methoxy)methyl)phosphonic acid], the IC50 was at most 500 nM.

As a reminder, the IC50 is the concentration needed to halve the response being measured.
